29 compounds from patent publication US9169259B2, “Imidazopyridazine compounds” (Hoffmann-La Roche Inc., priority 2011, dated 2015) can be followed below.

In this experiment the target is recombinant human SYK360-635 (Homo sapiens (Human), UniProt P43405). Kind of experiment: SYK kinase assay (33P ATP filtration, IC50 of SYK inhibition). The note with it: truncated SYK aa 360-635 0.5 nM, ATP 20 μM, peptide 5 μM, 30° C. 15 min; read-out: ENZYME_FILTRATION_IC50. It counts as biochemical. As for the experimental part:
Determination of IC50 of Spleen Tyrosine Kinase (SYK) Inhibition:
SYK kinase assay is a standard kinase assay adapted to a 96 well plate format. This assay is performed in 96-well format for IC50 determination with […] which represented 10 half log dilutions and a 40 μL reaction volume. The assay measures the incorporation of radiolabeled ^33P γATP into an N-terminally biotinylated peptide substrate, derived from naturally occurring phosphoacceptor consensus sequence (Biotin-11aa DY*E). Phosphorylated products were detected upon termination of reactions with EDTA and the addition of Streptavidin coated beads.
Assay plates: 96-well MultiScreen 0.65 um filter plates (Millipore Cat. No.: MADVNOB10)
final concentration: 50 mM HEPES pH7.5
BSA: Bovine Serum Albumin Fraction V, fatty acid free (Roche Diagnostics GmbH, Cat. No. 9100221) diluted to a final concentration of 0.1%
Assay Dilution Buffer (ADB): 50 mM HEPES, 0.1 mM EGTA, 0.1 mM Na Vanadate, 0.1 mM β-glycerophosphate, 10 mM MgCl2, 1 mM DTT, 0.1% BSA, pH 7.5
Bead wash buffer: 10 g/L PBS (Phosphate buffered saline) with 2M NaCl+1% phosphoric acid.
DMSO and the mixture was incubated for 10 min at RT.
The kinase reaction was initiated by the addition of 10 μL 4× substrate cocktail containing the DYE peptide substrate [0 or 5 μM], ATP [20 μM] and ^33PγATP [2 μCi/r×n]. After incubation at 30° C. for 15 min, the reaction was terminated by the transfer of 25 μL of the reaction sample to a 96 well 0.65 μm Millipore MADVNOB membrane/plate containing 200 μL 5 mM EDTA and 20% Streptavidine coated beads in PBS.
After the last wash membrane/plates were transferred to an adaptor plate, heat dried for 15 min at 60° C., and 50 μL scintillation cocktail was added to each well and 4 h later the amount of radioactivity was counted in a top counter.

Structures can show the parent of a compound that is named as a salt.

As for `FC(F)(F)c1cccc(Nc2cc(-c3ccccc3)nn3ccnc23)n1` [Example I-1, (6-Phenyl-imidazo[1,2-b]pyridazin-8-yl)-(6-trifluoromethyl-pyridin-2-yl)-amine], the IC50 was over 10000 nM.
Next, `CCc1ccc(Nc2cc(-c3ccccc3)nn3ccnc23)nc1` [Example I-2, (5-Ethyl-pyridin-2-yl)-(6-phenyl-imidazo[1,2-b]pyridazin-8-yl)-amine]: 186 nM.
Next, `COC(=O)c1cccc(-c2cc(Nc3cccc(N4CCCC4C)n3)c3nccn3n2)c1` (centres unmarked) [Example I-8, 3-{8-[6-(2-Methyl-pyrrolidin-1-yl)-pyridin-2-ylamino]-imidazo[1,2-b]pyridazin-6-yl}-benzoic acid methyl ester]: 478 nM; `CC1CCCN1c1cccc(Nc2cc(-c3cccc(C(=O)Nc4ccc(C(=O)O)cc4)c3)nn3ccnc23)n1` (centres unmarked) [Example I-10, 4-(3-{8-[6-(2-Methyl-pyrrolidin-1-yl)-pyridin-2-ylamino]-imidazo[1,2-b]pyridazin-6-yl}-benzoylamino)-benzoic acid]: 1.65 nM.
Next, `COC(=O)c1ccc(-c2cc(Nc3cccc(N4CCCC4C)n3)c3nccn3n2)cc1` (centres unmarked) [Example I-14, 4-{8-[6-(2-Methyl-pyrrolidin-1-yl)-pyridin-2-ylamino]-imidazo[1,2-b]pyridazin-6-yl}-benzoic acid methyl ester]: 369 nM.
Regarding `CC1CCCN1c1cccc(Nc2cc(-c3ccc(C(=O)O)cc3)nn3ccnc23)n1` (centres unmarked) [Example I-15, 4-{8-[6-(2-Methyl-pyrrolidin-1-yl)-pyridin-2-ylamino]-imidazo[1,2-b]pyridazin-6-yl}-benzoic acid], the IC50 was 84.2 nM.
Next, `CC1CCCN1c1cccc(Nc2cc(-c3ccc(C(=O)NCCc4ccncc4)cc3)nn3ccnc23)n1` (centres unmarked) [Example I-16, 4-{8-[6-(2-Methyl-pyrrolidin-1-yl)-pyridin-2-ylamino]-imidazo[1,2-b]pyridazin-6-yl}-N-(2-pyridin-4-yl-ethyl)-benzamide]: 87.6 nM.
For the compound `CC1CCCN1c1cccc(Nc2cc(-c3ccc4c(c3)OCO4)nn3ccnc23)n1` (centres unmarked) [Example I-18, (6-Benzo[1,3]dioxol-5-yl-imidazo[1,2-b]pyridazin-8-yl)-[6-(2-methyl-pyrrolidin-1-yl)-pyridin-2-yl]-amine], the IC50 amounted to 115 nM.
Turning to `CC1CCCN1c1cccc(Nc2cc(-c3ccc4cn[nH]c4c3)nn3ccnc23)n1` (centres unmarked) [Example I-19, [6-(1H-Indazol-6-yl)-imidazo[1,2-b]pyridazin-8-yl]-[6-(2-methyl-pyrrolidin-1-yl)-pyridin-2-yl]-amine], the IC50 amounted to 75 nM.
Next, `O=C(O)c1cccc(-c2cc(Nc3cccc(N4CCCC4CO)n3)c3nccn3n2)c1` (centres unmarked) [Example I-20, 3-{8-[6-(2-Hydroxymethyl-pyrrolidin-1-yl)-pyridin-2-ylamino]-imidazo[1,2-b]pyridazin-6-yl}-benzoic acid]: 258 nM; `O=C(O)c1cccc(-c2cc(Nc3cccc(N4CCCC4)n3)c3nccn3n2)c1` [Example I-22, 3-[8-(6-Pyrrolidin-1-yl-pyridin-2-ylamino)-imidazo[1,2-b]pyridazin-6-yl]-benzoic acid hydrochloride]: 434 nM; `O=C(O)c1cccc(-c2cc(Nc3cccc(N4CC5CC5C4)n3)c3nccn3n2)c1` (centres unmarked) [Example I-23, 3-{8-[6-(3-Aza-bicyclo[3.1.0]hex-3-yl)-pyridin-2-ylamino]-imidazo[1,2-b]pyridazin-6-yl}-benzoic acid]: 442 nM.
Next, `Cc1c(C(=O)O)cccc1-c1cc(Nc2cccc(N3CCC[C@@H]3C)n2)c2nccn2n1` [Example I-24, 2-Methyl-3-{8-[6-((S)-2-methyl-pyrrolidin-1-yl)-pyridin-2-ylamino]-imidazo[1,2-b]pyridazin-6-yl}-benzoic acid]: 194 nM; `CC1CCN(c2cccc(Nc3cc(-c4ccccc4)nn4ccnc34)n2)C1` (centres unmarked) [Example I-25, [6-(3-Methyl-pyrrolidin-1-yl)-pyridin-2-yl]-(6-phenyl-imidazo[1,2-b]pyridazin-8-yl)-amine]: 88.5 nM.
Turning to `COc1ccc(Nc2cc(-c3ccc(C(=O)O)cc3)nn3ccnc23)nc1OC` [Example I-26, 4-[8-(5,6-Dimethoxy-pyridin-2-ylamino)-imidazo[1,2-b]pyridazin-6-yl]-benzoic acid], the IC50 was found to be 265 nM.
Next, `COc1ccc(Nc2cc(-c3ccc(C(=O)NCCc4cc[nH]c(=O)c4)cc3)nn3ccnc23)nc1OC` [Example I-28, 4-[8-(5,6-Dimethoxy-pyridin-2-ylamino)-imidazo[1,2-b]pyridazin-6-yl]-N-[2-(2-oxo-1,2-dihydro-pyridin-4-yl)-ethyl]-benzamide]: 187 nM.
Turning to `CCC1CCCN1c1cccc(Nc2cc(-c3ccccc3)nn3ccnc23)n1` (centres unmarked) [Example I-30, [6-(2-Ethyl-pyrrolidin-1-yl)-pyridin-2-yl]-(6-phenyl-imidazo[1,2-b]pyridazin-8-yl)-amine hydrochloride], the IC50 turned out to be 1960 nM.
Next, `OCC1CCCN1c1cccc(Nc2cc(-c3ccccc3)nn3ccnc23)n1` (centres unmarked) [Example I-31, {1-[6-(6-Phenyl-imidazo[1,2-b]pyridazin-8-ylamino)-pyridin-2-yl]-pyrrolidin-2-yl}-methanol hydrochloride]: 270 nM.
Next, `COc1ccc(Nc2cc(-c3ccc(C(=O)NCCc4ccn(C)c(=O)c4)cc3)nn3ccnc23)nc1OC` [Example I-33, 4-[8-(5,6-Dimethoxy-pyridin-2-ylamino)-imidazo[1,2-b]pyridazin-6-yl]-N-[2-(1-methyl-2-oxo-1,2-dihydro-pyridin-4-yl)-ethyl]-benzamide]: 79 nM; `CC1(C)CCN(c2cccc(Nc3cc(-c4ccccc4)nn4ccnc34)n2)C1` [Example I-34, [6-(3,3-Dimethyl-pyrrolidin-1-yl)-pyridin-2-yl]-(6-phenyl-imidazo[1,2-b]pyridazin-8-yl)-amine]: 1050 nM.
Next, `COCC1CCCN1c1cccc(Nc2cc(-c3ccccc3)nn3ccnc23)n1` (centres unmarked) [Example I-35, [6-(2-Methoxymethyl-pyrrolidin-1-yl)-pyridin-2-yl]-(6-phenyl-imidazo[1,2-b]pyridazin-8-yl)-amine hydrochloride]: 834 nM; `COCC1CCCN1c1cccc(Nc2cc(-c3cccc(C(=O)O)c3)nn3ccnc23)n1` (centres unmarked) [Example I-36, 3-{8-[6-(2-Methoxymethyl-pyrrolidin-1-yl)-pyridin-2-ylamino]-imidazo[1,2-b]pyridazin-6-yl}-benzoic acid]: 345 nM; `CC1CCCN1c1cccc(Nc2cc(-c3ccc4[nH]ncc4c3)nn3ccnc23)n1` (centres unmarked) [Example I-37, [6-(1H-Indazol-5-yl)-imidazo[1,2-b]pyridazin-8-yl]-[6-(2-methyl-pyrrolidin-1-yl)-pyridin-2-yl]-amine]: 98.1 nM.
Turning to `CC1CC(C)CN(c2cccc(Nc3cc(-c4cccc(C(=O)O)c4)nn4ccnc34)n2)C1` (centres unmarked) [Example I-38, 3-[8-(3,5-Dimethyl-3,4,5,6-tetrahydro-2H-[1,2′]bipyridinyl-6′-ylamino)-imidazo[1,2-b]pyridazin-6-yl]-benzoic acid], the IC50 is 904 nM.
In the case of `COc1cccc(-c2cc(Nc3cccc(N4CCCC4C)n3)c3nccn3n2)c1` (centres unmarked) [Example I-39, [6-(3-Methoxy-phenyl)-imidazo[1,2-b]pyridazin-8-yl]-[6-(2-methyl-pyrrolidin-1-yl)-pyridin-2-yl]-amine], the IC50 was found to be 292 nM.
For the compound `CC1CCCN1c1cccc(Nc2cc(-c3cccc(C(=O)NCCO)c3)nn3ccnc23)n1` (centres unmarked) [Example I-40, N-(2-Hydroxy-ethyl)-3-{8-[6-(2-methyl-pyrrolidin-1-yl)-pyridin-2-ylamino]-imidazo[1,2-b]pyridazin-6-yl}-benzamide], the IC50 worked out at 42.5 nM.
Next, `CC(CO)NC(=O)c1cccc(-c2cc(Nc3cccc(N4CCCC4C)n3)c3nccn3n2)c1` (centres unmarked) [Example I-41, N-(2-Hydroxy-1-methyl-ethyl)-3-{8-[6-(2-methyl-pyrrolidin-1-yl)-pyridin-2-ylamino]-imidazo[1,2-b]pyridazin-6-yl}-benzamide]: 130 nM.
Next, `CC1CCCN1c1cccc(Nc2cc(-c3cccc(C(=O)N4CCOCC4)c3)nn3ccnc23)n1` (centres unmarked) [Example I-42, (3-{8-[6-(2-Methyl-pyrrolidin-1-yl)-pyridin-2-ylamino]-imidazo[1,2-b]pyridazin-6-yl}-phenyl)-morpholin-4-yl-methanone]: 219 nM; `COc1ccc(Nc2cc(-c3ccccc3)nn3ccnc23)nc1OC` [Example I-44, (5,6-Dimethoxy-pyridin-2-yl)-(6-phenyl-imidazo[1,2-b]pyridazin-8-yl)-amine]: 47.6 nM.
